Source: patent US12404291B2, “Antimicrobial agent” (priority 2019, dated 2025)
≈ marks a conversion by molar mass, not a printed value.

What was measured:
[1] = tested on: HPRT; assay: HPRT forward mutation assay; assay type: cell-based; conditions: concentrations above the compounds MIC's
From the text: It is therefore confirmed that the compounds are non-mutagenic to mammalian DNA.

[2] = physchem; assay type: physicochemical; conditions: pH 7.4, aqueous buffer, kinetic from dmso stock
Procedure: Table 12 illustrates the kinetic solubility of complexes 4^2+ and 4^4+ were tested and compared to a soluble positive control drug (Nicardipine). Both compounds passed the DMPK analysis with an optimal solubility and kinetic stability.

[3] = tested on: E. coli wild type (MG1655); assay: MIC and MBC determination; assay type: cell-based
Procedure: (§1) The bioactivity of these compounds was investigated with respect to the wild type K12-derivative MG1655 and uropathogenic multidrug resistant EC958 ST131 strains of E. coli. Another gram-positive bacteria, ESKAPE bacteria—the pathogenic gastrointestinal strain of Enterococcus faecalis, V583 (ATCC700802)—which is a major opportunistic pathogen (and a leading cause of urinary tract infections) was also tested with respect to the compounds. The minimum inhibitory concentration, MIC, of the four complexes was obtained in both glucose defined minimal media (GDMM) and nutrient rich Mueller-Hinton-II (MH-II) (FIG. 7).
(§2) The same parameters and conditions used above to determine MIC and MBC values with respect to compounds 1^4+ to 4^4+ were employed in order to test the MIC and MBC values of complexes 1^2+ to 4^2+.
(§3) The MIC and MBC values were determined as above.

[4] = tested on: E. faecalis pathogenic (V583); assay: MIC and MBC determination; assay type: cell-based, Enterococcus faecalis
Procedure: as §1, §2, §3

[5] = tested on: K. pneumonia biofilm; assay: Biofilm activity profile (MBEC); assay type: cell-based; conditions: Gram-negative biofilm
[6] = tested on: A. baumannii biofilm; assay: Biofilm activity profile (MBEC); assay type: cell-based; conditions: Gram-negative biofilm
[7] = tested on: P. aeruginosa biofilm; assay: Biofilm activity profile (MBEC); assay type: cell-based; conditions: Gram-negative biofilm

Which Mutations [1] does the source give for `N.N.[Cl][Pt][Cl]` [Cisplatin] here?
Its Mutations is 65.5 per 1 × 10^5 viable cells.

Which solubility [2] does the source give for `COC(=O)C1=C(C)NC(C)=C(C(=O)OCCN(C)Cc2ccccc2)C1c1cccc([N+](=O)[O-])c1` (stereo not drawn) [Nicardipine] here?
The solubility was 20.8 µM (≈ 10 µg/mL).

And the solubility ([2]; Solubility)?
The solubility was 20.8 µM (≈ 9.97 µg/mL).

For `CC1(C)S[C@@H]2[C@H](NC(=O)[C@H](N)c3ccccc3)C(=O)N2[C@H]1C(=O)O` [ampicillin], which MBC ([3]; Escherichia coli, MG1655, GDMM) is on record?
Its MBC is 11.4 µM (≈ 3.98 µg/mL).

What about the MBC ([3]; MH-II) of the same molecule?
The MBC was 11.4 µM (≈ 3.98 µg/mL).

And the MIC ([4]; Enterococcus faecalis, MH-II)?
The MIC was 0.5 µM (≈ 0.175 µg/mL).

What about the MBC ([4]; Enterococcus faecalis, GDMM) of the same molecule?
Its MBC is 6.3 µM (≈ 2.2 µg/mL).

What about the MIC ([4]; Enterococcus faecalis, GDMM) of the same molecule?
The MIC was 1 µM (≈ 0.349 µg/mL).

And the MBC ([4]; MH-II)?
The MBC was 6.3 µM (≈ 2.2 µg/mL).

With Gentamicin as the molecule, how does the “Minimum Biofilm Eradication Concentration (MBEC)” value [5] read?
The value was 18 µM.

And the “Minimum Biofilm Eradication Concentration (MBEC)” value [6]?
The value was 9 µM.

What about the “Minimum Biofilm Eradication Concentration (MBEC)” value [7] of the same molecule?
The value was 18 µM.
